Source: patent US5733913A, “6-Aryl pyrido[2,3-d] pyrimidines and naphthyridines for inhibiting protein tyrosine kinase mediated cellular proliferation” (priority 1995, dated 1998)

Columns and labels:
V-src kinase = V-src kinase assay; format: biochemical; details: at 50 μM
Procedure: (§1) V-src and C-src Kinase Assays
(§2) V-src or C-src kinase is purified from baculovirus infected insect cell lysates using an antipeptide monoclonal antibody directed against the N-terminal 2-17 amino acids. The antibody, covalently linked to 0.65-μm latex beads, is added to a suspension of insect cell lysis buffer comprised of 150 mM NaCl, 50 mM Tris pH 7.5, 1 mM DTT, 1% NP-40, 2 mM EGTA, 1 mM sodium vanadate, 1 mM PMSF, 1 μg/mL each of leupeptin, pepstatin, and aprotinin. Insect cell lysate containing either the c-src or v-src protein is incubated with these beads for 3-4 hours at 4° C. with rotation. At the end of the lysate incubation, the beads are rinsed 3 times in lysis buffer, resuspended in lysis buffer containing 10% glycerol, and frozen. These latex beads are thawed, rinsed three times in assay buffer which is comprised of 40 mM tris pH 7.5, 5 mM MgCl2, and suspended in the same buffer. In a Millipore 96-well plate with a 0.65 μm polyvinylidine membrane bottom are added the reaction components: 10-μL v-src or c-src beads, 10 μL of 2.5 mg/mL poly GluTyr substrate, 5 μM ATP containing 0.2 μCi labeled ^32 P-ATP, 5μL DMSO containing inhibitors or as a solvent control, and buffer to make the final volume 125 μL. The reaction is started at room temperature by addition of the ATP and quenched 10 minutes later by the addition of 125 μL of 30% TCA, 0.1M sodium pyrophosphate for 5 minutes on ice. The plate is then filtered and the wells washed with two 250-μL aliquots of 15% TCA, 0.1M pyrophosphate. The filters are punched, counted in a liquid scintillation counter, and the data examined for inhibitory activity in comparison to a known inhibitor such as erbstatin. The method is described more fully in J. Med. Chem., 37:598-609 (1994).

[1] = target: T1, human FGF-1 (flg) receptor tyrosine kinase (Homo sapiens, UniProt P11362); assay: FGF receptor tyrosine kinase assay; format: biochemical; details: for IC50: read-out: Inhibition of Protein Tyrosine Kinases, FGF, IC50; for inhibition at 50 µM: read-out: Inhibition of Protein Tyrosine Kinases, FGF, % Inhibition
T1 construct: a fragment of DNA that codes for the intracellular tyrosine kinase domain; made in house; host or cells: Sf9 insect cells (baculovirus), cell lysate
Description: (§3) PDGF and FGF Receptor Tyrosine Kinase Assays
(§4) Full length cDNAs for the mouse PDGF-β and human FGF-1 (flg) receptor tyrosine kinases were obtained from J. Escobedo and prepared as described in J. Biol. Chem., 262:1482-1487 (1991), and PCR primers were designed to amplify a fragment of DNA that codes for the intracellular tyrosine kinase domain. The fragment was melded into a baculovirus vector, cotransfected with AcMNPV DNA, and the recombinant virus isolated. SF9 insect cells were infected with the virus to overexpress the protein, and the cell lysate was used for the assay. […] Briefly, to each well was added 82.5 μL of incubation buffer containing 25 mM Hepes (pH 7.0), 150 mM NaCl, 0.1% Triton X-100, 0.2 mM PMSF, 0.2 mM Na3 VO4, 10 mM MnCl2, and 750 μg/mL of Poly (4:1) glutamate-tyrosine followed by 2.5 μL of inhibitor and 5 μL of enzyme lysate (7.5 μg/μL FGF-TK or 6.0 μg/μL PDGF-TK) to initiate the reaction. Following a 10 minute incubation at 25° C., 10 μL of γ^32 P-ATP (0.4 μCi plus 50 μM ATP) was added to each well and samples were incubated for an additional 10 minutes at 25° C. The reaction was terminated by the addition of 100 μL of 30% trichloroacetic acid (TCA) containing 20 mM sodium pyrophosphate and precipitation of material onto glass fiber filter mats (Wallac). […] Nonspecific activity was defined as radioactivity retained on the filters following incubation of samples with buffer alone (no enzyme). Specific enzymatic activity was defined as total activity (enzyme plus buffer) minus nonspecific activity.

[2] = target: T2, mouse PDGF-β receptor tyrosine kinase (Mus musculus, UniProt P05622); assay: PDGF receptor tyrosine kinase assay; format: biochemical; details: for inhibition at 50 µM: read-out: Inhibition of Protein Tyrosine Kinases, PDGF, % Inhibition; for IC50: read-out: Inhibition of Protein Tyrosine Kinases, PDGF, IC50
T2 construct: a fragment of DNA that codes for the intracellular tyrosine kinase domain; made in house; host or cells: Sf9 insect cells (baculovirus), cell lysate
Description: as §3, §4

C-src kinase = target: T3, C-src kinase (Homo sapiens, UniProt P12931); assay: C-src kinase assay; format: biochemical; details: for inhibition at 50 µM: read-out: Inhibition of Protein Tyrosine Kinases, C-src, % Inhibition; for IC50: read-out: Inhibition of Protein Tyrosine Kinases, C-src, IC50
T3 construct: made in house; host or cells: baculovirus-infected insect cells
Procedure: as §1
as §2, with “Insect cell lysate containing either the c-src or v-src protein is incubated with these beads for 3-4 hours at 4° C. with rotation.” left out

PDGF receptor = PDGF receptor autophosphorylation in RASMC; format: cell-based, rat; details: PDGF-BB 30 ng/mL, read-out: Inhibition of PDGF Stimulated Receptor Auto Phosphorylation (IC50)
Procedure: Rat aorta smooth muscle cells (RASMC) were isolated from the thoracic aorta of rats and explanted according to the method of Ross, J. Cell. […] Cells were grown in Dulbecco's modified Eagle's medium (DMEM, Gibco) containing 10% fetal calf serum (FBS, Hyclone, Logan, Utah), 1% glutamine (Gibco) and 1% penicillin/streptomycin (Gibco). Cells were identified as smooth muscle cells by their "hill and valley" growth pattern and by fluorescent staining with a monoclonal antibody specific for SMC μ-actin (Sigma). RASMC were used between passages 5 and 20 for all experiments. Test compounds were prepared in dimethylsulfoxide (DMSO) in order to achieve consistency in the vehicle and to ensure compound solubility. Appropriate DMSO controls were simultaneously evaluated with the test compounds.
PDGF Receptor Autophosphorylation
RASMC were grown to confluency in 100 mm dishes. Growth medium was removed and replaced with serum-free medium and cells were incubated at 37° C. for an additional 24 hours. Test compounds were then added directly to the medium and cells incubated for an additional 2 hours. After 2 hours, PDGF-BB was added at a final concentration of 30 ng/mL for 5 minutes at 37° C. to stimulated autophosphorylation of the PDGF receptor. Following growth factor treatment, the medium was removed, and cells were washed with cold phosphate-buffered saline and immediately lysed with 1 mL of lysis buffer (50 mM HEPES[pH 7.5], 150 mM NaCl, 10% glycerol, 1% Triton X-100, 1 mM EDTA, 1 mMEGTA, 50 mM NaF, 1 mM sodium orthovanadate, 30 mM p-nitrophenyl phosphate, 10 mM sodium pyrophosphate, 1 mM phenylmethyl sulfonyl fluoride, 10 μg/mL aprotinin, and 10 μg/mL leupeptin). Lysates were centrifuged at 10,000×g for 10 minutes. […] Following the incubation, protein-A-sepharose beads were added for 2 hours with continuous mixing, and immune complexes bound to the beads washed 4 times with 1 mL lysis wash buffer. Immune complexes were solubilized in 30 μL of Laemmli sample buffer and electrophoresed in 4-20% SDS polyacrylamide gels. Following electrophoresis, separated proteins were transferred to nitrocellulose and immunoblotted with anti-phosphotyrosine antiserum. […] IC50 values were generated from the densitometric data.

T2 sequence (P05622 599-961 limits assumed): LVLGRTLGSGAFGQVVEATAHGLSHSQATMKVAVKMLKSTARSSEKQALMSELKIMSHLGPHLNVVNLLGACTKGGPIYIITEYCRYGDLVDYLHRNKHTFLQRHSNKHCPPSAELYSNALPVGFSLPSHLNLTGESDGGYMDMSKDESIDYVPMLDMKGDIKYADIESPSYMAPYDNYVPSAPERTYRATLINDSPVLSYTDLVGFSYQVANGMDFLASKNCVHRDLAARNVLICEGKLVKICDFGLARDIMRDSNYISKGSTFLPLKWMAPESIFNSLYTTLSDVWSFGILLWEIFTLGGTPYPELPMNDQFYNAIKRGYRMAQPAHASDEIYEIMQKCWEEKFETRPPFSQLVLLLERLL
T3 sequence (P12931 whole entry): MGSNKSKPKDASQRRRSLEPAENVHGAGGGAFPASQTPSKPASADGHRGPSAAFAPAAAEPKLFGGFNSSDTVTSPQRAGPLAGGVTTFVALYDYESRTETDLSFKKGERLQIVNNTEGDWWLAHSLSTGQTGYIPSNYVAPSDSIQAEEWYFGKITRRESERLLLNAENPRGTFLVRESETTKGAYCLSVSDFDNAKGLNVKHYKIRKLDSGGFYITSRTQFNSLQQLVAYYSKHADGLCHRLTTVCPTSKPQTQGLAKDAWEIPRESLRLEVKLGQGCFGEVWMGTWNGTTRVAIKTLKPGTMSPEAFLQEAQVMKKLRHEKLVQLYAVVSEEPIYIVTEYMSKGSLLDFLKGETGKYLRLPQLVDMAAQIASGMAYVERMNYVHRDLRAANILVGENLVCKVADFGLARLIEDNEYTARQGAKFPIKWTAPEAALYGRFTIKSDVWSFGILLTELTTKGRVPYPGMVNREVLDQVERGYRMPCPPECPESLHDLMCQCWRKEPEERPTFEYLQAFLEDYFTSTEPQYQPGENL
T1 sequence (P11362 478-767 limits assumed): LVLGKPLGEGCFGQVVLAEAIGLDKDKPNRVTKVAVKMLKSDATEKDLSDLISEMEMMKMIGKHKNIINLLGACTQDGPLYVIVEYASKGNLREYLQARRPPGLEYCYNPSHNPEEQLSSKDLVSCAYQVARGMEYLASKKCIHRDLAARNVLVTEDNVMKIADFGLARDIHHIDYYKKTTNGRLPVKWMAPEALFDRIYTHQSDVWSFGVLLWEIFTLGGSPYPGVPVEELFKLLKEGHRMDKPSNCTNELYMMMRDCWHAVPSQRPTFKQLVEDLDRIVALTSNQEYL

Row | Compound | IC50 [1] [µM] | IC50 [2] [µM] | IC50 (C-src kinase) [µM] | IC50 (PDGF receptor) [µM] | Inhibition of Protein Tyrosine Kinases, V-src, % Inhibition (V-src kinase) [%] | inhibition at 50 µM [2] [%] | inhibition at 50 µM (C-src kinase) [%] | inhibition at 50 µM [1] [%]
1 | Nc1ncc2cc(-c3c(Cl)cccc3Cl)c(N)nc2n1 [Example 1, 2,7-Diamino-6-(2,6-dichlorophenyl)-pyrido[2,3-d]pyrimidine] | 2.99 | – | – | – | -2.4 | – | – | –
2 | CNc1nc2nc(N)ncc2cc1-c1ccc(OC)cc1 [Example 13, 6-(4-Methoxyphenyl)-N^7-methyl-pyrido[2,3-d]pyrimidine-2,7-diamine] | 30.3 | – | – | – | 21.2 | 18.2 | 15.9 | –
3 | CCN(CC)CCCNc1ncc2cc(-c3c(Cl)cccc3Cl)c(N)nc2n1 [Example 20, 7-Amino-6-(2,6-dichlorophenyl)-2-(3-diethylamino-propylamino)-pyrido[2,3-d]pyrimidine] | 2.38 | 46.1 | 0.748 | – | 51.7 | – | – | –
4 | Nc1ncc2cc(-c3ccccc3)c(N)nc2n1 [Example 81, 6-Phenyl-pyrido[2,3-d]pyrimidine-2,7-diamine] | – | – | – | – | -20.3 | – | 67.5 | –
5 | Nc1ncc2cc(-c3cccc(Cl)c3Cl)c(N)nc2n1 [Example 83, 6-(2,3-Dichlorophenyl)-pyrido[2,3-d]pyrimidine-2,7-diamine] | 1.98 | 42.5 | – | – | -9.8 | – | 53.6 | –
6 | Cc1cccc(-c2cc3cnc(N)nc3nc2N)c1C [Example 92, 6-(2,3-Dimethyl-phenyl)-pyrido[2,3-d]pyrimidine-2,7-diamine] | 2.01 | – | – | – | -10.1 | 33.1 | 44.5 | –
7 | COc1ccccc1-c1cc2cnc(N)nc2nc1N [Example 100, 6-(2-Methoxy-phenyl)-pyrido[2,3-d]pyrimidine-2,7-diamine] | – | – | – | – | 6.0 | 22.3 | 46.6 | 27.1
8 | COc1cccc(-c2cc3cnc(N)nc3nc2N)c1 [Example 102, 6-(3-Methoxy-phenyl)-pyrido[2,3-d]pyrimidine-2,7-diamine] | 3.11 | – | – | – | -8.2 | 44.4 | 0.8 | –
9 | Nc1ncc2cc(-c3cccnc3)c(N)nc2n1 [Example 107, 6-Pyridin-3-yl-pyrido[2,3-d]pyrimidine-2,7-diamine] | – | – | – | – | 1.4 | 20.5 | 37 | 37.2
10 | Nc1ncc2cc(-c3ccccn3)c(N)nc2n1 [Example 111, 6-Pyridin-2-yl-pyrido[2,3-d]pyrimidine-2,7-diamine] | – | 23.3 | – | – | -26.4 | – | 15.7 | 47.7

Further lines, with some results ahead:

Row | IC50 [1] [µM] | IC50 [2] [µM] | IC50 (C-src kinase) [µM] | IC50 (PDGF receptor) [µM] | Compound | Inhibition of Protein Tyrosine Kinases, V-src, % Inhibition (V-src kinase) [%] | inhibition at 50 µM [2] [%] | inhibition at 50 µM (C-src kinase) [%] | inhibition at 50 µM [1] [%]
11 | 1.39 | – | 1.56 | 9.42 | CCNC(=O)Nc1nc2nc(NCCN(CC)CC)ncc2cc1-c1c(Cl)cccc1Cl [Example 67, 1-[6-(2,6-Dichlorophenyl)-2-(2-diethylamino-ethyl-amino)-pyrido[2,3-d]pyrimidin-7-yl]-3-ethyl-urea] | – | – | – | –
12 | 11.2 | 4.48 | 19.3 | – | COc1ccccc1-c1cc2cnc(N)nc2nc1NC(=O)NC(C)(C)C [Example 101, 1-[2-Amino-6-(2-methoxy-phenyl)-pyrido[2,3-d]pyrimidin-7-yl]-3-tert-butyl-urea] | – | – | – | –
13 | 0.3 | 19.6 | 36.4 | – | COc1cccc(-c2cc3cnc(N)nc3nc2NC(=O)NC(C)(C)C)c1 [Example 103, 1-[2-Amino-6-(3-methoxy-phenyl)-pyrido[2,3-d]pyrimidin-7-yl]-3-tert-butyl-urea] | – | – | – | –
14 | 0.181 | 0.618 | 0.214 | – | CC(C)(C)NC(=O)Nc1nc2nc(N)ncc2cc1-c1c(Cl)cccc1Br [Example 105, 1-[2-Amino-6-(2-bromo-6-chloro-phenyl)-pyrido[2,3-d]pyrimidin-7-yl]-3-tert-butyl-urea] | – | – | – | –
15 | 0.361 | 4.8 | 0.236 | – | CCCS(=O)(=O)Nc1nc2nc(N)ncc2cc1-c1c(Cl)cccc1Cl [Example 106, Propane-1-sulfonic acid [2-amino-6-(2,6-dichlorophenyl)-pyrido[2,3-d]pyrimidin-7-yl]-amide] | – | – | – | –
16 | 4.48 | 13.7 | 5.66 | – | CC(C)(C)NC(=O)Nc1nc2nc(N)ncc2cc1-c1cccnc1 [Example 108, 1-(2-Amino-6-pyridin-3-yl-pyrido[2,3-d]pyrimidin-7-yl)-3-tert-butyl-urea] | – | – | – | –
17 | 12.8 | 11.5 | – | – | CC(C)(C)NC(=O)Nc1nc2nc(N)ncc2cc1-c1ccncc1 [Example 110, 1-(2-Amino-6-pyridin-4-yl-pyrido[2,3-d]pyrimidin-7-yl)-3-tert-butyl-urea] | – | – | 27.5 | –
18 | 19.2 | 23.9 | – | 15.9 | CCN(CC)CCCNc1ncc2cc(-c3c(C)cccc3C)c(N)nc2n1 [Example 114, N^2-(3-Diethylamino-propyl)-6-(2,6-dimethyl-phenyl)-pyrido[2,3-d]pyrimidine-2,7-diamine] | – | – | – | –
19 | 0.135 | 2.79 | – | – | CN1CCN(CCCNc2ncc3cc(-c4c(Cl)cccc4Cl)c(NC(=O)NC45CC6CC(CC(C6)C4)C5)nc3n2)CC1 [Example 117, 1-Adamantan-1-yl-3-{6-(2,6-dichlorophenyl)-2-[3-(4-methyl-piperazin-1-yl)-propylamino]-pyrido[2,3-d]pyrimidin-7-yl}-urea] | – | – | 100 | –
20 | 3.27 | 3.84 | 42.7 | – | Cc1cc(C)c(C)c(-c2cc3cnc(NCCCN4CCN(C)CC4)nc3nc2N)c1C [Example 120, N^2-[3-(4-Methyl-piperazin-1-yl)-propyl]-6-(2,3,5,6-tetramethyl-phenyl)-pyrido[2,3-d]pyrimidine-2,7-diamine] | – | – | – | –
